The supplement of paper PMC8671470

Tests used:
Settings in all cases: 72 h
[1] = test system: BV-173
Outline: (§1)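 Each of fifteen myeloid leukaemia cell lines was seeded in RPMI 1640 at a density titrated to its linear growth range. The cells were incubated for 72 h at 37 °C and 5% CO2 with compounds at five tenfold doses from 1 to 10,000 nM, in duplicate. After ATP luminescence was normalised to vehicle and to a positive control at 10 µM, four-parameter log-logistic curves were fitted. These curves gave the IC50.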

[2] = test system: HEL
Outline: as §1

[3] = test system: HL-60
Outline: as §1

[4] = test system: K-562
Outline: as §1

[5] = test system: KCL-22
Outline: as §1

[6] = test system: KG-1
Outline: as §1

[7] = test system: KU-812
Outline: as §1

[8] = test system: LAMA-84
Outline: as §1

[9] = test system: ML-2
Outline: as §1

[10] = test system: MOLM-13
Outline: as §1

[11] = test system: MV4-11
Outline: as §1

[12] = test system: Mono-Mac-6
Outline: as §1

[13] = test system: NOMO-1
Outline: as §1

[14] = test system: SHI-1
Outline: as §1

[15] = test system: THP-1
Outline: as §1

[16] = test system: HL-60; test: cell viability (% survival relative to DMSO control); higher = less cytotoxic
Outline: (§2)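 A rescreen of the full library used HL-60 cells in RPMI 1640 with 10% FBS on 384-well plates, run in duplicate at five tenfold concentrations (1–10,000 nM). Each screen included DMSO or 100 nM of one of three metabolic inhibitors and ran 72 h at 37 °C, 5% CO2. CellTiter-Glo viability was scaled between DMSO and 10 μM proteasome-inhibitor wells. Any area under the curve comes from four-parameter log-logistic fits with drc and PharmacoGx.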

[17] = test system: BV-173; test: cell viability (% survival relative to DMSO control, bortezomib = 0%); higher = less cytotoxic
Outline: (§3)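 Fifteen myeloid leukaemia cell lines were exposed to compounds at 1, 10, 100, 1000 or 10000 nM in 384-well plates for 72 h at 37 °C and 5% CO2. Viability was read by CellTiter-Glo luminescence and normalised, with vehicle as 100% and a 10 µM positive control as 0%. Values are percent survival averaged over duplicates.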

[18] = test system: HEL; test: as above
Outline: as §3

[19] = test system: HL-60; test: as above
Outline: as §3

[20] = test system: K-562; test: as above
Outline: as §3

[21] = test system: KCL-22; test: as above
Outline: as §3

[22] = test system: KU-812; test: as above
Outline: as §3

[23] = test system: LAMA-84; test: as above
Outline: as §3

[24] = test system: ML-2; test: as above
Outline: as §3

[25] = test system: Mono-Mac-6; test: as above
Outline: as §3

[26] = test system: NOMO-1; test: as above
Outline: as §3

[27] = test system: SHI-1; test: as above
Outline: as §3

[28] = test system: HL-60; test: area under dose-response curve (viability, 1 nM-10 uM) (fraction (0-1)); higher = more sensitive
Outline: as §2

NS(=O)(=O)c1ccc([N+](=O)[O-])cc1 [4-Nitrobenzenesulfonamide]
Settings | IC50 (cell viability) [µM]
[1] | > 10
[2] | > 10
[3] | > 10
[4] | > 10
[5] | > 10
[6] | > 10
[7] | > 10
[8] | > 10
[9] | > 10
[10] | > 10
[11] | > 10
[12] | > 10
[13] | > 10
[14] | > 10
[15] | > 10

cell viability [%], [16]
Settings | 0.001 µM | 0.01 µM | 0.1 µM | 1 µM | 10 µM
co-treatment: AZD3965 100 nM | 91.2 | 100.8 | 103 | 97.7 | 90.6
co-treatment: DMSO vehicle | 92.3 | 96.5 | 104 | 104 | 100
co-treatment: GSK2194069 100 nM | 96.7 | 96.8 | 100.73 | 102 | 98.17
co-treatment: pictilisib 100 nM | 105 | 98.6 | 101 | 99.4 | 91.7

Settings | area under dose-response curve, co-treatment: AZD3965 100 nM | area under dose-response curve, co-treatment: DMSO vehicle | area under dose-response curve, co-treatment: GSK2194069 100 nM | area under dose-response curve, co-treatment: pictilisib 100 nM | cell viability, 1 nM [%] | cell viability, 10 nM [%] | cell viability, 100 nM [%] | cell viability, 1000 nM [%] | cell viability, 10000 nM [%]
[17] | – | – | – | – | 101 | 95 | 105 | 97.8 | 86.1
[18] | – | – | – | – | 105 | 98.7 | 105 | 99.6 | 96.3
[19] | – | – | – | – | 106 | 111 | 110 | 99.8 | 108
[20] | – | – | – | – | 103 | 105 | 97.1 | 94.8 | 100
[21] | – | – | – | – | 103 | 101 | 103 | 93.1 | 91.1
[22] | – | – | – | – | 102 | 95.7 | 105 | 98.1 | 93
[23] | – | – | – | – | 99.5 | 95.1 | 103 | 95.4 | 98.6
[24] | – | – | – | – | 103 | 111 | 97.3 | 102 | 89.6
[25] | – | – | – | – | 101 | 97.3 | 98.1 | 111 | 89.8
[26] | – | – | – | – | 101 | 105 | 98.5 | 103 | 98.3
[27] | – | – | – | – | 102 | 90.7 | 102 | 100 | 93.8
[28] | < 0.0301 | < 0.0301 | < 0.0301 | < 0.0301 | – | – | – | – | –

Cc1ccccc1C(C(=O)NC1CCCCC1)N(C(=O)Cn1ccnc1C)c1cccc(F)c1 (configuration not stated) [AGI-5198]
Settings | IC50 (cell viability) [µM]
[1] | > 10
[2] | > 10
[3] | > 10
[4] | > 10
[5] | > 10
[6] | > 10
[7] | > 10
[8] | > 10
[9] | > 10
[10] | > 10
[11] | > 10
[12] | > 10
[13] | > 10
[14] | > 10
[15] | > 10

cell viability [%], [16]
Settings | 0.001 µM | 0.01 µM | 0.1 µM | 1 µM | 10 µM
co-treatment: AZD3965 100 nM | 95.1 | 98.5 | 93.2 | 91.8 | 100.5
co-treatment: DMSO vehicle | 98.5 | 106 | 104 | 99.4 | 95.7
co-treatment: GSK2194069 100 nM | 103 | 101 | 88.5 | 101 | 106
co-treatment: pictilisib 100 nM | 98.4 | 114 | 103 | 102 | 104

Settings | area under dose-response curve, co-treatment: AZD3965 100 nM | area under dose-response curve, co-treatment: DMSO vehicle | area under dose-response curve, co-treatment: GSK2194069 100 nM | area under dose-response curve, co-treatment: pictilisib 100 nM | cell viability, 1 nM [%] | cell viability, 10 nM [%] | cell viability, 100 nM [%] | cell viability, 1000 nM [%] | cell viability, 10000 nM [%]
[17] | – | – | – | – | 88.3 | 103 | 107 | 104 | 95.2
[18] | – | – | – | – | 95.4 | 104 | 106 | 99.4 | 101
[19] | – | – | – | – | 107 | 106 | 99.5 | 102 | 116
[20] | – | – | – | – | 98.5 | 101 | 103 | 96.5 | 104
[21] | – | – | – | – | 101 | 114 | 132 | 111 | 104
[22] | – | – | – | – | 97.7 | 105 | 109 | 92.1 | 103
[23] | – | – | – | – | 97.6 | 104 | 115 | 97.2 | 99.9
[24] | – | – | – | – | 96.8 | 106 | 122 | 103 | 95.1
[25] | – | – | – | – | 92.8 | 107 | 100 | 104 | 99
[26] | – | – | – | – | 96 | 103 | 107 | 100 | 102
[27] | – | – | – | – | 94.9 | 92.7 | 107 | 96.2 | 99.1
[28] | < 0.0301 | < 0.0301 | < 0.0301 | < 0.0301 | – | – | – | – | –

CC(C)(C#N)c1cc(Cn2cncn2)cc(C(C)(C)C#N)c1 [Anastrozole]
Settings | IC50 (cell viability) [µM]
[1] | > 10
[2] | > 10
[3] | > 10
[4] | > 10
[5] | > 10
[6] | > 10
[7] | > 10
[8] | > 10
[9] | > 10
[10] | > 10
[11] | > 10
[12] | > 10
[13] | > 10
[14] | > 10
[15] | > 10

cell viability [%], [16]
Settings | 0.001 µM | 0.01 µM | 0.1 µM | 1 µM | 10 µM
co-treatment: AZD3965 100 nM | 97.5 | 101.3 | 102 | 102 | 100
co-treatment: DMSO vehicle | 101 | 100 | 101 | 101.7 | 102
co-treatment: GSK2194069 100 nM | 96.7 | 94.4 | 120 | 102 | 100
co-treatment: pictilisib 100 nM | 104 | 92.3 | 106 | 108 | 101

Settings | area under dose-response curve, co-treatment: AZD3965 100 nM | area under dose-response curve, co-treatment: DMSO vehicle | area under dose-response curve, co-treatment: GSK2194069 100 nM | area under dose-response curve, co-treatment: pictilisib 100 nM | cell viability, 1 nM [%] | cell viability, 10 nM [%] | cell viability, 100 nM [%] | cell viability, 1000 nM [%] | cell viability, 10000 nM [%]
[17] | – | – | – | – | 104 | 89.4 | 104 | 95.9 | 104
[18] | – | – | – | – | 92.8 | 96.5 | 105 | 97.1 | 105
[19] | – | – | – | – | 103 | 99.7 | 89.3 | 93.8 | 91.6
[20] | – | – | – | – | 109 | 95.3 | 106 | 93.2 | 92.1
[21] | – | – | – | – | 102 | 91.6 | 111 | 91.7 | 102
[22] | – | – | – | – | 86.1 | 90.6 | 100 | 90.5 | 90
[23] | – | – | – | – | 93.5 | 97.6 | 96.3 | 99.9 | 97.7
[24] | – | – | – | – | 106 | 100 | 106 | 90.5 | 93
[25] | – | – | – | – | 103 | 102 | 111 | 102 | 89.7
[26] | – | – | – | – | 90.6 | 103 | 96.4 | 99.6 | 102
[27] | – | – | – | – | 108 | 94.5 | 102 | 101 | 103
[28] | < 0.0301 | < 0.0301 | < 0.0301 | < 0.0301 | – | – | – | – | –
